Reference: patent publication US12275725B2, “Inhibitors of the notch transcriptional activation complex and methods for use of the same” (University of Miami, priority 2019, dated 2025)

What was measured:
[1] = system: OE33 cell line (esophageal adenocarcinoma); test: Colony assay, OE33; type: cell-based, human; conditions: OE33, repeat dose every 48 hours for 10 days
Protocol: Cells were plated into a 6 well plate at a density of 2000 cells/cm^2. Inhibitor treatment commenced 24 hours post seeding, and the media containing inhibitor was changed every 48 hours thereafter. […]

[2] = system: esophageal adenocarcinoma patient-derived xenograft (EAC47 PDX tumor); test: Esophageal adenocarcinoma patient-derived xenograft (PDX) model; type: in vivo; conditions: NSG mice, 25 days of treatment
Protocol: Mouse Xenograft Studies Six-week-old NOD-SCID gamma (“NSG”) mice were purchased from Jackson Laboratories and CD-1 Nude mice were purchased from Charles River Laboratories. For the cell line based xenografts assay, 5×10^6 OE19 cells in 200 μl serum-free culture medium were injected subcutaneously per mouse. The mice in the treatment group were injected with 15 mg/kg NADi-351 daily, and the mice in the control group were injected with the same volume of vehicle (DMSO). Subcutaneous tumor growth was measured once every 4 days using calipers along with body weight. The experiment was discontinued on day 28. PDX cancer models were established, as described in Zhang et al, Establishment of Patient-Derived Xenograft (PDX) Models of Human Breast Cancer, Current Protocols in Mouse Biology, 3:21-29 (2013), in NSG mice. Briefly, 10 mm^3 pieces of primary EAC47 PDX tumor were transplanted subcutaneously into the flanks of NSG mice using a 13G telescopic needle. When the tumors reached 200 mm^3, the mice were split into two uniform groups for treatment. NADi-351 (20 mg/kg) and vehicle were administered daily by intraperitoneal (“IP”) injection for 24 days. Tumor growth was monitored every 4 days and tumor volume was measured by the formula: Volume=(S×S×L)/2, where S and L are the short and long dimensions. […]

intestinal crypts = test: Histological analysis of mouse intestine tissue (H&E and PAS staining); type: in vivo, BALB/c mice; conditions: 5 days; DBZ at efficacious dose, NADi-351 at 4x the efficacious dose
Protocol: The compounds and salts disclosed herein no not induce goblet cell metaplasia in intestinal crypts. Intestinal crypts were exposed to vehicle (DMSO), an efficacious dose of dibenzazepine (“DBZ”), a γ-secretase inhibitor, and 4× the efficacious dose of NADi-351 and stained with a hemotoxylin and eosin (“H&E”) stain and a periodic acid-Schiff (“PAS”) stain.
Six-week old BALB/c mice (Jackson Laboratories) were injected intraperitoneally with NADi-351, daily for 5 days. Small intestine samples were harvested on day 5. Formalin-fixed and paraffin-embedded tissues were sectioned at 3 μm thickness. Histochemical identification of intestinal cell types was performed with Periodic Acid-Schiff (PAS) staining kit (ab150680, Abcam), according to manufacturer's instructions.

[3] = system: OE33 cell line (esophageal adenocarcinoma); test: Tumor sphere viability, MTT assay, OE33; type: cell-based, human; conditions: OE33, 72 hours of treatment
Protocol: FIG. 4A depicts a graph showing the ability of NADi-351 to inhibit the tumor sphere viability of the OE33 cell line (esophageal adenocarcinoma) after 72 hours of treatment using the Methylthiazolyldiphenyl-tetrazolium bromide (“MTT”) assay.
The compounds and salts disclosed herein can inhibit the viability of tumor spheres and decrease Notch target gene expression.
OE33 cells, human esophageal adenocarcinoma cell lines, were obtained from the European Collection of Cell Culture. SUM-149 and SUM-159, breast cancer cell lines, were obtained from Dr. Joyce Slingerland at the University of Miami School of Medicine. The following cell lines were obtained directly from the ATCC: 786-0, a human renal cell adenocarcinoma cell line; HT-1080, a human fibrosarcoma cell line; MCF-7, a mammary gland adenocarcinoma; T47D, a human mammary ductal carcinoma cell line; and H-23 a non-small cell lung adenocarcinoma cell line. All cell lines were propagated in growth media as specified.

Notch target genes = test: Quantitative RT-PCR of Notch target genes in OE33 cells; type: cell-based, human; conditions: OE33, 48 h, compared to control (DMSO), normalized to TBP
Protocol: Quantitative RT-PCR Other Assays
RNA was isolated from OE33 cells treated with either DMSO (vehicle) or NADi-351 for 48 h, using an RNA purification kit (Qiagen), following the manufacturer's instructions. cDNA was synthesized using the High Capacity cDNA Reverse Transcription kit (Applied Biosystems), according to the manufacturer's instructions. qPCR reactions were carried out in the Bio-Rad CFX96 thermal cycler using Sybr Green Master Mix (Bio-Rad). Gene expression was normalized to housekeeping gene TBP. […]

[4] = Pharmacokinetic study in mouse plasma; type: in vivo; conditions: iv, i.v. 10 mg/kg
[5] = target: T1, Notch transcriptional activation complex (NTC) (Homo sapiens, UniProt P46531+Q06330); test: Notch complex assembly assay (NTC AlphaScreen assay); type: binding
T1 construct: made in house; host or cells: SF21 insect cells (baculovirus)
Protocol: Notch Complex Assembly Assay
All recombinant proteins were expressed using baculovirus expression vectors in SF21 cells and purified. Unless otherwise stated, all assays contained 125 fmol of double stranded oligonucleotide, CSL, Notch1 and MAML1 proteins. Reactions were carried out in Tris-buffered saline with 0.1% Tween (“TBS-T”) buffer containing 0.2% bovine serum albumin (“BSA”) and 100 μg/mL salmon sperm DNA. Briefly, the Notch complex was assembled on a biotinylated double stranded (“DS”) oligonucleotide harboring one CSL binding site (5′-[…]-3′). Complex assembly was quantitated using ALPHASCREEN technology (Perkin Elmer). Proteins in the complexes were detected using specific antibodies to either MAML1 (Cell signaling, D3K7B), Notch1 (Abcam, 52627) or CSL (anti-His, Abcam 18184). Streptavidin conjugated […] beads (Perkin Elmer, 6760002) were used to bind the DS oligonucleotide, and Protein-A conjugated […] beads (Perkin Elmer, 6760137) were used to detect antibody-coated proteins. For screening compounds, Notch transcriptional activation complex (“NTC”) components were added to wells that already contained the inhibitor to be assayed and allowed to incubate for 30 minutes. The ALPHASCREEN plate (Perkin Elmer, 6008350) was then read on an Envision Plate reader (Perkin Elmer) as specified by the manufacturer.

T1 sequence (P46531 1754-2555 limits assumed): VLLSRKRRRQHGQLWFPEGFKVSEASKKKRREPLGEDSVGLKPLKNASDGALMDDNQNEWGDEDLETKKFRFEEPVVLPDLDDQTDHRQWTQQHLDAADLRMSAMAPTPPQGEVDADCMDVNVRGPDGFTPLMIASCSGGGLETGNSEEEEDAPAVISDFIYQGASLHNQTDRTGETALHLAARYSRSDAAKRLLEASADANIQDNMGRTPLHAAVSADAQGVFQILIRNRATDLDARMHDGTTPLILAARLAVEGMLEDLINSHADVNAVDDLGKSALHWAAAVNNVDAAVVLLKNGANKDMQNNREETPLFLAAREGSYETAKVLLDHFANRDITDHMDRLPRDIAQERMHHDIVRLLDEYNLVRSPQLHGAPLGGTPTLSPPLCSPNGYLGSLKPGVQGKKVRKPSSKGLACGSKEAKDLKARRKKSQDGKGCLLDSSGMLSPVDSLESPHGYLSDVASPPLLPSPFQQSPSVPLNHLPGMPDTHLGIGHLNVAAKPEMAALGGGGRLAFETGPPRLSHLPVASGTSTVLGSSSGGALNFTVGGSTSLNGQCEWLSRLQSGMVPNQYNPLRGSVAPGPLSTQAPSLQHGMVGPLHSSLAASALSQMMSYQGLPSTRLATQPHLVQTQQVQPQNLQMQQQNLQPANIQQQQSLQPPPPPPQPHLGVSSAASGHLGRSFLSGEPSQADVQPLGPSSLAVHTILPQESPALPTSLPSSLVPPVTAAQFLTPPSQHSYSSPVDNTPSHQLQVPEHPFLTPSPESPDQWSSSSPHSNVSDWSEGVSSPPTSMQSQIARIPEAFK
T1 sequence (Q06330 whole entry): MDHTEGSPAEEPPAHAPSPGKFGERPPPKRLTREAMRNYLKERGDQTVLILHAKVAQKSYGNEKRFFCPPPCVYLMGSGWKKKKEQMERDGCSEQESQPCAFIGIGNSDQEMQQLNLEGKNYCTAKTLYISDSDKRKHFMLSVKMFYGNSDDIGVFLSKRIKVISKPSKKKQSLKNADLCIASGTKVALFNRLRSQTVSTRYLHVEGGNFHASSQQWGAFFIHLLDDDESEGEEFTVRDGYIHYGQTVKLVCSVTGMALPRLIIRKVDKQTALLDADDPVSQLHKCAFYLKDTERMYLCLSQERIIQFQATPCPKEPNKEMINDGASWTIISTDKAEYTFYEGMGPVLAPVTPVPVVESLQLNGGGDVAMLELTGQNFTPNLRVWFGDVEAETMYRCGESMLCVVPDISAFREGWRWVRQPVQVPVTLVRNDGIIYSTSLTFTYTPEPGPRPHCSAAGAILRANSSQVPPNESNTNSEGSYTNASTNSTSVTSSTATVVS

SMILES: COc1cc(/C(C)=C2\SC(=S)N(CC(=O)N(C)C)C2=O)cc(F)c1OCc1nnc[nH]1 [NADi-351, (Z)-2-(5-(1-(4-((1H-1,2,4-triazol-3-yl)methoxy)-3-fluoro-5-methoxyphenyl)ethylidene)-4-oxo-2-thioxothiazolidin-3-yl)-N,N-dimethylacetamide]
- colony formation [1]: decreased colony formation
- body weight of the subjects [2]: remained constant
- volume of the tumor ([2]; compared to control): significantly inhibited compared to control
- goblet cell metaplasia / crypt integrity (H&E and PAS staining) (intestinal crypts): no goblet cell metaplasia and intact crypts
- decrease of tumor sphere viability [3]: about 75%
- expression of Notch target genes (Notch target genes): decreased the expression of Notch target genes
- AUC(0-t) [4]: 4570 ng·h/mL
- Cmax ([4]; back extrapolated, read-out: *C0/Cmax): 15900 ng/mL
- IC50 ([5]; Table E, NTC AlphaScreen assay, read-out: *IC50): 2.4 nM
- increase in potency over NADi-260 ([5]; methylated at the alkene vs NADi-260): 10 fold
